Positions of bridges follow the written chain, without caps; N, C: chain ends. Non-standard residues stand in square brackets, D forms with d.
Tests used:
[1] = tested on: hydrophobic pocket of IQN17 (gp41); assay: 1H NMR assay of binding to the IQN17 hydrophobic pocket; set-up: species or system HIV-1; details: 1:1 complex with IQN17, 25° C., 100 mM NaCl, 50 mM sodium phosphate pH 7.5, D2O
From the text: NMR experiments were used to assay the binding of each D-peptide to IQN17. The single tryptophan residue of IQN17 (denoted Trp-571) provides an excellent probe of specific binding to the hydrophobic pocket of gp41. […] To test a compound for binding to the gp41 pocket, two one-dimensional ^1H NMR measurements were made on samples in deuterated buffers. First, a reference (control) spectrum of IQN17 was taken, identifying the Trp571 chemical shifts in the unbound form. A second spectrum was acquired on a sample containing both IQN17 and the compound in question. An optional third spectrum of the D-peptide (or other small molecule, or mix of molecules) was also taken. ^1H NMR experiments were performed on a Bruker AMX 500 spectrometer. Data was processed in Felix 98.0 (MSI) on Silicon Graphics computers, and all spectra were referenced to DSS. All experiments were performed at 25° C. in 100 mM NaCl, 50 mM sodium phosphate (pH 7.5). All buffers used were >99.7% D2O, to remove overlapping resonances from exchangeable backbone and side chain protons. Solute concentrations ranged from 0.3-1.0 mM for individual peptides, 0.8-1.0 mM for 1:1 commplexes of IQN17 with each D-peptide.
Simple binding of two or more components is expected to result both in broader peaks (due to the increased size of the complex) and in changes in chemical shifts (due to the different chemical environments experienced by nuclei in free and bound forms). Specific binding to the hydrophobic pocket is indicated by a change in the Trp-571 chemical shifts, as well as by a broadening of peaks. Binding can also be indicated by similar changes in the chemical shifts and peak widths of the molecule (peptides and small organic molecules, for example) assayed. […] All IQN17/D-peptide complexes studied gave similar results, though varying in the degree of chemical shift dispersion (FIG. 9B). Thus, binding was indicated in all cases.
To confirm that the strongly upfield-shifted peaks all correspond to a single sidechain (almost certainly Trp-571), two-dimensional NMR (TOCSY) experiments were performed on each of the IQN17/D-peptide complexes. As expected, the TOCSY experiments indicate that in each complex, the strongly upfield-shifted resonances all belong to the same aromatic side chain, identified as a group of four scalar-coupled protons. For several of the complexes studied, NOESY experiments also indicate contact between this sidechain and other (unassigned) aromatic groups, as expected from the IQN17/D10pep1 structure. Not all of the potential NOE crosspeaks could be resolved, due to intense spectral overlap in the 6.8-7.6 ppm region. 2D NOESY and TOCSY experiments as described in J. Cavanaugh, W. J. Fairbrother, A. G. Palmer, N. J. Skelton, Protein NMR Spectroscopy: Principles and Practice (1996) were performed on samples of IQN17 and of each complex, with mixing times ranging between 30-90 ms (NOESY) and 30-70 ms (TOCSY). Spectral widths of 11,111 Hz and 5555 Hz were used in the acquisition (t2) and indirect (t1) dimensions, respectively. TOCSY experiments employed the DIPSI-2rc mixing sequence (J. Cavanaugh, M. Rance, J. Magn. Reson. Serv. A., 105:328 (1993)).

[2] = tested on: recombinant luciferase-expressing HIV-1; assay type: cell-based; details: infectivity assay
Procedure: The potency of C34 peptides in inhibiting viral infection and the HIV-1 infection inhibitory activity of the D-peptides were assayed using recombinant luciferase-expressing HIV-1 (Chen, B. K. et al., J. Virol., 68:654 (1994); Malashkevich, V. N., et al., Proc. Natl. Acad. Sci., USA, 95:9134 (1998)).
The apparent melting temperatures (Tm) were estimated from the thermal dependence of the CD signal at 222 nm. Inhibition of viral entry was measured in a cell-culture infection assay using recombinant luciferase-expressing HIV-1. Inhibition of cell-cell fusion was measured in a syncytium assay. The means and standard errors are from triplicate trials.

[3] = tested on: HIV-1; details: Phase I clinical trial; cited from earlier work
[4] = tested on: syncytia formation between Chinese hamster ovary cell expressing HXB2 envelope and HeLa-CD4-LTR-Beta-gal cells; details: two additional N-terminal lysines vs parent D-peptide
Procedure: In each instance, a blocking group (e.g., an acetyl group) was present at the N terminus and a CONH2 (amide) was present at the C-terminus.
Inhibition of cell/cell fusion (i.e., syncytia formation) was assayed by co-culturing Chinese hamster ovary cell expressing HXB2 envelope (K. Kozarsky, et al., J. Acquir. Immune. Defic. Syndr., 2:163 (1989) and the HeLa-CD4-LTR-Beta-gal cells (M. Emerman, NIH AIDS Reagent program) in the presence of varying concentration of peptide. When mixed, these cells form syncytia, or multi-nucleated cells, which express β-galactosidase. Approximately twenty hours after co-culturing the cells, the monolayers were stained with 5-bromo-4-chloro-3-indolyl-β-D-galactoside to visualize the syncytia. The syncytia are visualized with a microscope and counted manually (a syncytia is scored as a fused cell containing three or more nuclei). The IC50 was calculated from fitting the data to a Langmuir equation [y=k/(1+[peptide]/IC50)+x], where y=number of syncytia and k and x are scaling constants.

Ac-GACDLKAKEWFWLCAA-CONH2 (Ac-G[dA][dC][dD][dL][dK][dA][dK][dE][dW][dF][dW][dL][dC][dA][dA]-NH2; disulfide 3-14 (inferred)) [Peptide D10pep4]
binding to the hydrophobic pocket of IQN17 [1]: contact the pocket with very similar binding interfaces

Ac-GACEARHREWAWLCAA-CONH2 (Ac-G[dA][dC][dE][dA][dR][dH][dR][dE][dW][dA][dW][dL][dC][dA][dA]-NH2; disulfide 3-14 (inferred)) [Peptide D10pep1]
inhibition of infection of cells [2]: inhibit infection of cells
binding to the hydrophobic pocket of IQN17 [1]: contact the pocket with very similar binding interfaces

Ac-GACSRSQPEWEWLCAA-CONH2 (Ac-G[dA][dC][dS][dR][dS][dQ][dP][dE][dW][dE][dW][dL][dC][dA][dA]-NH2; disulfide 3-14 (inferred)) [Peptide D10pep6]
binding to the hydrophobic pocket of IQN17 [1]: contact the pocket with very similar binding interfaces

Ac-KKGACGLGQEEWFWLCAA-CONH2 (Ac-KKG[dA][dC]G[dL]G[dQ][dE][dE][dW][dF][dW][dL][dC][dA][dA]-NH2; disulfide 5-16 (inferred); not fully specified (residues 1, 2); printed as Ac-KKGACGLGQEEWFWLCAA-CONH2) [Peptide D10pep3]
binding to the hydrophobic pocket of IQN17 [1]: contact the pocket with very similar binding interfaces

enfuvirtide
antiviral activity in vivo [3]: reduced viral loads

Ac-KKGACEARHREWAWLCAA-CONH2 (Ac-KKG[dA][dC][dE][dA][dR][dH][dR][dE][dW][dA][dW][dL][dC][dA][dA]-NH2; disulfide 5-16 (inferred); not fully specified (residues 1, 2); printed as Ac-KKGACEARHREWAWLCAA-CONH2) [Peptide D10pep1a]
IC50 for inhibition of syncytia formation relative to parent peptide without the added lysines [4]: approximately 2 fold
binding to the hydrophobic pocket of IQN17 [1]: broader peaks and dramatically different chemical shifts

Reference: patent US6841657B2, “Inhibitors of HIV membrane fusion” (priority 1998, dated 2005)
